Assay: Transcutaneous passage kinetics of calixarene in Franz cell
Assay type: in vitro ADME, pig
Conditions: released from 1 ml nanoemulsion loaded with 4 mg/g calixarene; 24 hours exposure; occlusive; HPLC LD=17 ng/ml, LQ=52 ng/ml

With “1,3,5-O-Me-2,4,6-OCH2COOH-p-tert-butylcalix[6]arene [calixarene]” the “transcutaneous passage of calixarene” value was “did not pass through the skin”.
